# Measurements as given in paper PMC6199744, “Development of Chemical Proteomics for the Folateome and Analysis of the Kinetoplastid Folateome” (ACS Infectious Diseases, 2018).
# Where two headings read alike, the source gives them in different places.
# Columns and labels:
# Type in all cases: binding
# [1] = target: T1, HeLa cell extract proteins (Homo sapiens, UniProt P13804)
# T1 construct: endogenous in cells; host or cells: HeLa cell extract
# T1 sequence (P13804 20-333): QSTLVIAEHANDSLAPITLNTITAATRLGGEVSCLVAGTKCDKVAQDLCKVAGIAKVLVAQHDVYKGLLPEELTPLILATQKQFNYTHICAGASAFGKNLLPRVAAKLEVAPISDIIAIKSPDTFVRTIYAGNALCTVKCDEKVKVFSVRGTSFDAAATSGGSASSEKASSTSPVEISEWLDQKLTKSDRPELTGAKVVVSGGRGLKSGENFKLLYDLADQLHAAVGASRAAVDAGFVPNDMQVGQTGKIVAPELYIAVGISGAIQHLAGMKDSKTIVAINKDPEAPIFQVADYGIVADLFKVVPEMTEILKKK
# [2] = target: T2, HeLa cell extract proteins (Homo sapiens, UniProt O75718)
# T2 construct: endogenous in cells; host or cells: HeLa cell extract
# T2 sequence (O75718 27-401): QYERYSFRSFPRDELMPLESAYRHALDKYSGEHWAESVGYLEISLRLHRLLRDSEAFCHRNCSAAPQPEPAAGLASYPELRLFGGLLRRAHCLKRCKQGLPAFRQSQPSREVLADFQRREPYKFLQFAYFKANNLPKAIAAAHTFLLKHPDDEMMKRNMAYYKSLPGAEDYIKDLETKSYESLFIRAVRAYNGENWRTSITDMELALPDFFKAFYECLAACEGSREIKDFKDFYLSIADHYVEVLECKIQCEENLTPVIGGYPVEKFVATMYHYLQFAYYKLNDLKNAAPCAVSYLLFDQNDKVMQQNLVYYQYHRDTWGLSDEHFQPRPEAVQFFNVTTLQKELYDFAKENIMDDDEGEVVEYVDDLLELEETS
# [3] = target: T3, HeLa cell extract proteins (Homo sapiens, UniProt P19105)
# T3 construct: endogenous in cells; host or cells: HeLa cell extract
# T3 sequence (P19105 1-171): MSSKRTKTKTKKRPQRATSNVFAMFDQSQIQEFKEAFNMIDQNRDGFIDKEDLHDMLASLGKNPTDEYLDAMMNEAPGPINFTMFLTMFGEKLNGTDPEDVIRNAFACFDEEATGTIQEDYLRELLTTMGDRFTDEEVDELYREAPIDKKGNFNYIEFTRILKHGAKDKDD
# [4] = target: T4, HeLa cell extract proteins (Homo sapiens, UniProt O95848)
# T4 construct: endogenous in cells; host or cells: HeLa cell extract
# T4 sequence (O95848 1-222): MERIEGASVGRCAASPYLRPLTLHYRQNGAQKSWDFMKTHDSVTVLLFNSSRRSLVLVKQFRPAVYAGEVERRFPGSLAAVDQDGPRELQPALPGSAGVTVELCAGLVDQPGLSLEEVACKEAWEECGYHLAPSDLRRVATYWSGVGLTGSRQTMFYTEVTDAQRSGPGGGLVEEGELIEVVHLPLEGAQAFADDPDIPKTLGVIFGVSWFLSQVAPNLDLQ
# [5] = target: T5, HeLa cell extract proteins (Homo sapiens, UniProt P00390); details: protein GSR; HeLa
# T5 construct: endogenous in cells; host or cells: HeLa cell extract
# T5 sequence (P00390 44-522): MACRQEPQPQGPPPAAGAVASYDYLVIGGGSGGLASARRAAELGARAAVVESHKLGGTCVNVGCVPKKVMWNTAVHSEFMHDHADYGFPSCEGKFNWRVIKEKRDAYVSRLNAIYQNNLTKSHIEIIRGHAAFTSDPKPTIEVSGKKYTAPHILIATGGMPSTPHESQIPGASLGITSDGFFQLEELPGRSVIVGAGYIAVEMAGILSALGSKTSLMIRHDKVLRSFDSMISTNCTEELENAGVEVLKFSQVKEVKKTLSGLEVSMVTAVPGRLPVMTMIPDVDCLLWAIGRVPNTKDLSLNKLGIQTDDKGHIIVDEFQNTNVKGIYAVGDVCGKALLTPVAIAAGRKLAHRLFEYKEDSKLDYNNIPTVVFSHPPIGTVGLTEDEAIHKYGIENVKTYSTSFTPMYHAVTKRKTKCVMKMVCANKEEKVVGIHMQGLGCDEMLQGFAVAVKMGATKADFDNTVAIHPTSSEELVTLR
# [6] = target: T6, HeLa cell extract proteins (Homo sapiens, UniProt Q9UGJ1); details: HeLa; protein TUBGCP4
# T6 construct: endogenous in cells; host or cells: HeLa cell extract
# T6 sequence (Q9UGJ1 whole entry): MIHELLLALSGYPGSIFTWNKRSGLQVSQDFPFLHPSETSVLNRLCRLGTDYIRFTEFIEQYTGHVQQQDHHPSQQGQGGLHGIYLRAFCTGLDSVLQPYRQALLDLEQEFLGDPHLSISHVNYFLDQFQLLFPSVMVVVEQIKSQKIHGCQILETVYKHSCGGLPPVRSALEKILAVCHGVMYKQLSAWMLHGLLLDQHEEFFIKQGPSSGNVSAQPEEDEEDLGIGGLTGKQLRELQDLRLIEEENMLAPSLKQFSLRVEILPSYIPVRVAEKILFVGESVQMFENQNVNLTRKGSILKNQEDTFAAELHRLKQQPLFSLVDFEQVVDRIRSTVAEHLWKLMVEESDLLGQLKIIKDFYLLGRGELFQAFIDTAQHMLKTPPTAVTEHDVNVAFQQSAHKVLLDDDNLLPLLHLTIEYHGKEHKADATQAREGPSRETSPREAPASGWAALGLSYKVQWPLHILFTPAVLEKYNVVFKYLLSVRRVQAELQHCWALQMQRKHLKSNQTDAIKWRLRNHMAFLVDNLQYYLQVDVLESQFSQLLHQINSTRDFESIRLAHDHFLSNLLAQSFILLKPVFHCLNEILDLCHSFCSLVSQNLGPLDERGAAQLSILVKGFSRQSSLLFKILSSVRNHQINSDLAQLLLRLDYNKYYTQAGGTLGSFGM
# [7] = target: T7, HeLa cell extract proteins (Homo sapiens, UniProt Q5BJD5); details: captured protein TMEM41B; HeLa
# T7 construct: endogenous in cells; host or cells: HeLa cell extract
# T7 sequence (Q5BJD5 1-291): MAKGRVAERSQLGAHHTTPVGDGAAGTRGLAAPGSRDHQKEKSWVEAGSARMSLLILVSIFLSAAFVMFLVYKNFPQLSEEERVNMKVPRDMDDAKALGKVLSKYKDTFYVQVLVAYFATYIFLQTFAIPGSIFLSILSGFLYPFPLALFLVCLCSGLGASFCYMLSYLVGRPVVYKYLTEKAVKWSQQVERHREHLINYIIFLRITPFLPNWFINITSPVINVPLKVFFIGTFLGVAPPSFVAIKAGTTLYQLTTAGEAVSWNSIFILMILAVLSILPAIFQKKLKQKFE
# [8] = target: T8, HeLa cell extract proteins (Homo sapiens, UniProt P21266); details: protein GSTM3; HeLa
# T8 construct: endogenous in cells; host or cells: HeLa cell extract
# T8 sequence (P21266 1-225): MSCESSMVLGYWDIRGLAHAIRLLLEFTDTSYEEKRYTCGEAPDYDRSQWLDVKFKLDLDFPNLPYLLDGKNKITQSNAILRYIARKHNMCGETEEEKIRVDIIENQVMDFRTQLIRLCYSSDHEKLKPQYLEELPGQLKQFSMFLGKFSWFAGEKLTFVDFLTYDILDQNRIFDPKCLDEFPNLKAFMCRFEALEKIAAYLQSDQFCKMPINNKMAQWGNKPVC
# [9] = target: T9, HeLa cell extract proteins (Homo sapiens, UniProt Q13510); details: HeLa; protein ASAH1
# T9 construct: endogenous in cells; host or cells: HeLa cell extract
# T9 sequence (Q13510 22-395): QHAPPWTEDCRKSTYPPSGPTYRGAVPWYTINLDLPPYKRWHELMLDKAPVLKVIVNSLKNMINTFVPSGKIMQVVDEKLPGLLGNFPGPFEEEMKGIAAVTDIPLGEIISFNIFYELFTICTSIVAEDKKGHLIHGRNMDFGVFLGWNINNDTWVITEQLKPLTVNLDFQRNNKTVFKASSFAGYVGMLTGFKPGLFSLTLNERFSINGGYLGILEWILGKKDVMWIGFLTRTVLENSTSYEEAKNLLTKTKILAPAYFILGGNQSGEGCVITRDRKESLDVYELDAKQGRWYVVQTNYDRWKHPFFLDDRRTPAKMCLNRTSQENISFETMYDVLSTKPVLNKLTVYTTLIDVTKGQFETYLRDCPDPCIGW
# [10] = HeLa, protein MRCL3 (MYOSIN REGULATORY LIGHT CHAIN MRCL3 VARIANT)
SMILES,"fold changes relative to vehicle control ([1]; protein ETFA, HeLa)","fold changes relative to vehicle control ([2]; protein CRTAP, HeLa)","fold changes relative to vehicle control [3, 10]","fold changes relative to vehicle control ([4]; protein NUDT14, HeLa)",fold changes relative to vehicle control [5],fold changes relative to vehicle control [6],fold changes relative to vehicle control [7],fold changes relative to vehicle control [8],fold changes relative to vehicle control [9],also measured
"Nc1nc2c(c(=O)[nH]1)N(C=O)C(CNc1ccc(C(=O)N[C@@H](CCC(=O)O)C(=O)O)cc1)CN2 (stereo partly shown) [LEU, leucovorin]",0.77,0.85,0.8,1.01,–,–,–,–,–,–
NCCCNc1ccc(C(=O)NC(CCC(=O)O)C(=O)O)cc1 (stereo not shown) [compound 7],0.87,0.91,0.93,0.97,–,–,–,–,–,–
CCCCCCOc1cccc(Cc2cnc(N)nc2N)c1 [compound 2],–,–,–,–,1.15,1.07,1.09,1.72,0.71,–
CCCCCCOc1ccc(Cc2cnc(N)nc2N)cc1 [compound 1],–,–,–,–,0.94,0.85,1.09,1.22,0.97,–
Nc1nc2cccc(-c3ccccc3)c2n1Cc1ccc(Cl)c(Cl)c1 [compound 3],–,–,–,–,1,1.02,1.08,0.93,0.89,–
NCCOCCOCC(=O)Nc1nc2ncc(CNc3ccc(C(=O)NC(CCC(=O)O)C(=O)O)cc3)nc2c(=O)[nH]1 (stereo not shown) [compound 6],0.9,0.86,1.43,0.8,–,–,–,–,–,–
"Nc1nc2[nH]cc(CCc3ccc(C(=O)N[C@@H](CCC(=O)O)C(=O)O)cc3)c2c(=O)[nH]1 [PTX, pemetrexed]",–,–,–,–,–,–,–,–,–,fold changes relative to vehicle control [1]: 0.73; fold changes relative to vehicle control [2]: 0.82; fold changes relative to vehicle control [3]: 0.9; fold changes relative to vehicle control [4]: 0.49
